Holding throughout (assay type): in vivo
In assay [1] the test system is Soybean seeds cv. Toliman. In words: Soybean seedling emergence in saturated cold test (seed treatment). The conditions noted are these: for Total shoot dry mass: per tray. The method, then: (§1) Soybean seeds cv. Toliman were treated with a test compound of formula I formulated as FS100, at a dose of 0.05 g ai/kg, 0.005 g ai/kg, or 0.0001 g ai/kg seeds. Seeds were planted on 2 cm levelled pre-chilled moist sand and covered with a 2 cm layer of a mixture of steamed soil and sand (1:1). Enough cold water (10° C.) was added to the sand-soil mixture to adjust soil moisture to 60% water holding capacity. The seeds were incubated at 10° C. in the dark for 10 days and transferred into a chamber with alternating temperature (25° C. day/23° C. night) and light source (12 h) for 10 days. Seedling emergence in % and dry mass of above parts of seedling per tray was determined at the end of the incubation period. The test was performed using four replicates (4×50 seeds).

Assay [2] concerns temperate cauliflower Spacestar seeds (Brassica oleracea cv Botrytis). In words: Standard paper germination test for Brassica, suboptimal conditions. The conditions noted are these: 25 μM, 10° C. in the light, set A. The method, then:
The effect of compounds of Formula (I) on the germination of Brassica oleracea cv Botrytis or common cauliflower was tested on two types of cauliflowers: temperate types and tropical types. These two types were chosen because they display different sensitivities to the light conditions and temperature during germination. Germination of a sensitive temperate type is inhibited by light at 10° C. while for the tropical types germination at 20° is stimulated by the presence of light. […] The temperate seed batches tested are part of commercially produced seed batches of various varieties which are known to be sensitive to light at 10° C. These seeds were harvested and cleaned according standard commercial procedures. Ready seed batches were used (Ready indicates the processing level of these seeds: they have been cleaned and sized but received no other treatments). The tropical seed batches tested are part of seed batches produced as basic seed (for maintenance of the parental line) and were processed accordingly. Germination was assessed using the standard paper germination test for Brassica: Fifty seeds were placed on blue germination paper, which was moistened with the appropriate solutions, in closed oblong germination boxes. Each condition was tested in duplo. Germination boxes were placed in controlled germination cabinets with the appropriate temperature and light conditions. Germination of seeds was counted at regular intervals. Seeds were considered to be germinated when the radical had protruded the testa and endosperm (radical size approximately 1 mm). Test compounds were dissolved in DMSO at a concentration of 50 mM and stored at −20° C. The strigolactone analogue GR24 (commercially available as a racemic mixture of 2 diastereoisomers, referred to as “synthetic strigolactone GR-24” and first prepared by Johnson A. W. & all, Journal of the Chemical Society, Perkin Transactions 1, 1981, page 1734-1743) was included as positive control. Germination solutions were prepared by diluting the stock solutions with demineralized water till 25 μM. As control solutions demineralized water and a 0.05% v/v DMSO solution were used.

In assay [3] the test system is Soybean seeds cv. Toliman. As to the kind of experiment: Soybean seedling emergence in saturated warm test (seed treatment). The method, then: as §1, with “seeds). Treated seeds used in the saturated cold test were evaluated in parallel in a saturated warm test. Test conditions were the same as those described for the 10 day warm incubation period of the saturated cold test. Briefly, seeds were placed onto a saturated sand layer of 2 cm and covered with saturated sand-soil mixture (60% WHC) at room temperature. The seeds were incubated 10 days at 25° C. day/23° C. night and 12 h light. Seedling emergence and shoot dry mass was determined as described in the saturated cold test method. The test was performed using four replicates each 50 seeds.” for “seeds).”

The mark [4] stands for this setting: Spacestar 11B313 (cold-sensitive).
Where [5] appears, read: Spacestar 11B314 (not cold sensitive).

The text below walks through data of patent publication US20150152091A1, “CROP ENHANCEMENT” (Syngenta Participations AG, priority 2012, published 2015).

For the compound `CC1=CC(OC=C2C(=O)NC3c4ccccc4CC23)OC1=O` (stereo not shown) [Compound A1], the “Seedling emergence (%)” value turned out to be 67.5% in assay [1] (0.0001 g ai/kg seeds, FS100); 63.5% in assay [1] (0.005 g ai/kg seeds, FS100); 54.5% in assay [1] (0.05 g ai/kg seeds, FS100, 10 days 10° C. dark then 10 days 25/23° C.); 88.5% in assay [3] (0.0001 g ai/kg seeds); 89% in assay [3] (0.005 g ai/kg seeds); 91% in assay [3] (0.05 g ai/kg seeds, 10 days 25/23° C.). Besides, the “Total shoot dry mass” value in assay [1] (0.0001 g ai/kg seeds) amounted to 5.298 g; in assay [1] (0.005 g ai/kg seeds), 5.018 g; in assay [1] (0.05 g ai/kg seeds), 4.438 g; in assay [3] (0.0001 g ai/kg seeds), 6.053 g; in assay [3] (0.005 g ai/kg seeds) it was 6.010 g; in assay [3] (0.05 g ai/kg seeds), 6.023 g. For the same compound, the “Gmax (%), total germination as percentage of sown seeds” value in assay [2] (setting [4]) is reported as 77.0%; in assay [2] (setting [5]), 90.5%. The “stimulation (%), extra germination compared to the DMSO treatment” value in assay [2] (setting [4]) amounted to 28.3%; in assay [2] (setting [5]), 0.0%.
